The subject of data set [1] is Staphylococcus. Kind of data set: Inhibitory zone of compound at 30 ug against Staphylococcus innsbruck was determined. Format: functional.
For the next data set, the system named is Enterococcus. Briefly: Inhibitory zone of compound at 30 ug against Enterococcus was determined. The class given is functional.
In data set [2] the test system is Staphylococcus. Kind of data set: Inhibitory zone of compound at 30 ug against Staphylococcus 25768 was determined. Format: functional.
Data set [3] deals with Escherichia coli. Kind of data set: Inhibitory zone of compound at 30 ug against Escherichia coli 1103 was determined. The class given is functional.
A further data set has as its system Staphylococcus aureus. Kind of data set: Inhibitory zone of compound at 30 ug against Staphylococcus aureus 1104 was determined. The class given is functional.
In a further data set the test system is Enterobacter cloacae. Briefly: Inhibitory zone of compound at 30 ug against Enterobacter cloacae was determined. The class given is functional.
A further data set deals with Pseudomonas aeruginosa. Kind of data set: Inhibitory zone of compound at 30 ug against Pseudomonas aeruginosa was determined. Format: functional.
In data set [4] the test system is Escherichia coli. Briefly: Inhibitory zone of compound at 30 ug against Escherichia coli TEM was determined. Format: functional.
Data set [5] can be described thus: Compound was evaluated for relative hydrolysis rate. Format: ADME.
The nature of data set [6]: Compound was evaluated for half life of hydrolysis in phosphate buffer at pH 7.4 and 37 degree C. Format: ADME.
Data set [7] concerns the target T1, Beta-lactamase TEM (Escherichia coli, UniProt P62593). Kind of data set: (§1) Compound was evaluated for beta-lactamase inhibition activity of Escherichia coli after 15 min of pre-incubation with the enzyme at 37 degree C.
The target of the next data set is Beta-lactamase (Enterobacter cloacae, UniProt P05364). Briefly: Compound was evaluated for beta-lactamase inhibition activity of Enterobacter cloacae after 15 min of pre-incubation with the enzyme at 37 degree C.
Sequence of Beta-lactamase (P05364 whole entry): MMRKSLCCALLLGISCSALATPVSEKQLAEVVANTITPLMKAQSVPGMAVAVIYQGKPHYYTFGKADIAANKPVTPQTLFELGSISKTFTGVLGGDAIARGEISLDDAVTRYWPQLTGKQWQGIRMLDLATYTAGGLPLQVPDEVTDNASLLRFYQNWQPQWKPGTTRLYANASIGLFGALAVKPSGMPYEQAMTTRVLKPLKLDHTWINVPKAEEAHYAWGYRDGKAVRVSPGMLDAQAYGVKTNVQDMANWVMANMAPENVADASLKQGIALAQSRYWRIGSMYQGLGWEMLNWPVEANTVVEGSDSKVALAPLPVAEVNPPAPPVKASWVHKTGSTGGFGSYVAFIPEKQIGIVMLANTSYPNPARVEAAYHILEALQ
The target in data set [8] is T1, Beta-lactamase TEM. The data set is described as §1. Also noted: species or system Escherichia cloacae.

T1 sequence (P62593 whole entry): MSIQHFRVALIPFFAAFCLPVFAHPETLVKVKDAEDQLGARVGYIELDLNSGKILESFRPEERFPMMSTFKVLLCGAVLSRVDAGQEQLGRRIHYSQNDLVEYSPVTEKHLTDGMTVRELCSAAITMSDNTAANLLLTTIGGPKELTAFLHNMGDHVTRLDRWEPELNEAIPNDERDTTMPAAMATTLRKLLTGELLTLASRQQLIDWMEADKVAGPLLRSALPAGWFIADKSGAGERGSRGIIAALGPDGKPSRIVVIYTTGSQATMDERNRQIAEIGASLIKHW

With `N[C@@H](C(=O)N[C@@H]1C(=O)N2C(C(=O)O)=C(Cl)CS[C@H]12)c1ccccc1.O` [CEFACLOR], the Inhibition zone turned out to be 12 mm with Staphylococcus [1]; 15 mm in the data set on Enterococcus; 13 mm in the data set with Staphylococcus [2]; 25 mm with Escherichia coli [3]; 32 mm in the data set with Staphylococcus aureus; 7 mm in the data set with Enterobacter cloacae. The Inhibition zone in the data set with Pseudomonas aeruginosa worked out at 0 mm; with Escherichia coli [4], 15 mm.
For the molecule `CC(C)(C)C1=C(C(=O)[O-])N2C(=O)C[C@H]2[S+]1[O-].[K+]` (some centres undefined), the Inhibition zone was found to be 0 mm with Staphylococcus [1]; 0 mm with Enterococcus; 8 mm in the data set on Staphylococcus [2]; 10 mm in the data set on Escherichia coli [3]; 36 mm with Staphylococcus aureus; 0 mm with Enterobacter cloacae. Further, the Inhibition zone in the data set on Pseudomonas aeruginosa and in the data set on Escherichia coli [4] was 0 mm throughout. In addition, in data set [5], the Krel was 39. For the same molecule, in [6], the half-life (commonly the time in which the quantity being followed falls by half) is 5.5 h.
In the case of `CC(C)(C)C1=C(C(=O)[O-])N2C(=O)C[C@H]2S1.[K+]`, the Inhibition zone in the data set on Staphylococcus [1] was 0 mm; with Enterococcus it was 0 mm; in the data set on Staphylococcus [2], 0 mm; with Escherichia coli [3], 11 mm; in the data set with Staphylococcus aureus, 40 mm; with Enterobacter cloacae, 0 mm. In addition, the Inhibition zone in the data set with Pseudomonas aeruginosa and in the data set with Escherichia coli [4] was 0 mm in each case. In addition, the Krel in [5] is given as 1. In addition, in data set [6], the half-life was 9 h.
With `C[C@@H](O)[C@H]1C(=O)N2C(C(=O)[O-])=C(C(C)(C)C)[S+]([O-])[C@H]12.[K+]` (some centres undefined), the Inhibition zone amounted to 0 mm with Staphylococcus [1]; 0 mm with Enterococcus; 24 mm with Staphylococcus [2]; 20 mm with Escherichia coli [3]; 30 mm in the data set with Staphylococcus aureus; 7 mm in the data set on Enterobacter cloacae. The figures for the Inhibition zone in the data set on Pseudomonas aeruginosa and in the data set on Escherichia coli [4] were 0 mm and 13 mm, respectively. Further, the half-inhibitory concentration (IC50) (commonly the concentration that inhibits the measured activity by half) against Beta-lactamase TEM [7] is 90 µM; on Beta-lactamase, 0.3 µM. The Krel in [5] came out at 33. This molecule had a half-life in data set [6] of 6.5 h.
As to `C[C@@H](O)[C@H]1C(=O)N2C(C(=O)[O-])=C(C(C)(C)C)S[C@H]12.[K+]`, the Inhibition zone turned out to be 0 mm in the data set with Staphylococcus [1]; 11 mm with Enterococcus; 31 mm in the data set on Staphylococcus [2]; 18 mm in the data set on Escherichia coli [3]; 36 mm in the data set on Staphylococcus aureus; 10 mm in the data set on Enterobacter cloacae. The Inhibition zone came to 0 mm with Pseudomonas aeruginosa and 9 mm with Escherichia coli [4]. The results for the IC50 at Beta-lactamase TEM [8] and against Beta-lactamase were 50 µM and 0.3 µM, respectively. The molecule further came in with a Krel in data set [5] of 0.6. The molecule further had a half-life in data set [6] of 16 h.
Turning to `C[C@@H](O)[C@H]1C(=O)N2C(C(=O)[O-])=C(C(C)(C)C)S(=O)(=O)[C@H]12.[K+]`, the Inhibition zone with Staphylococcus [1], in the data set with Enterococcus, in the data set on Staphylococcus [2], with Escherichia coli [3], in the data set with Staphylococcus aureus and in the data set on Enterobacter cloacae was 0 mm each time. For the same molecule, the Inhibition zone with Pseudomonas aeruginosa and with Escherichia coli [4] was 0 mm throughout. Moreover, the IC50 turned out to be 10 µM at Beta-lactamase TEM [7] and 0.004 µM against Beta-lactamase. This molecule also showed a Krel in data set [5] of 720. In data set [6], the half-life is 18 h.

The values are drawn from ChEMBL document CHEMBL1130516, “Synthesis and biological activity of novel penem sulfoxides and sulfones” (Bioorg Med Chem Lett, 1997).
